Reference: patent publication US20090088373A1, “USE OF COMPOSITIONS TO ENHANCE INNATE IMMUNE RESPONSE” (priority 2007, published 2009)

Assays:
[1] = tested on: Staphylococcus aureus ΔmprF; assay: Direct co-incubation of Pimecrolimus with S. aureus ΔmprF cultures (OD600); format: cell-based; details: for Bacterial growth OD600 (Mean): 10 nM Pimecrolimus co-incubated with S. aureus, no keratinocyte lysate, 37° C.
Description: To assess the effect of pimecrolimus on the innate immune response of the epidermis against bacteria, cultures of normal human keratinocytes (NHEK) are stimulated with a concentration of 10 nM pimecrolimus, 1 nM 1.25D3 (active 1.25 D-hydroxy calciferol) or their combination. Cells are lysed via sonication 20 minutes in an ice bath, after which cell lysates were mixed with Staphylococcus aureus ΔmprF cultures and incubated at 37° C. Bacterial growth over time is monitored by OD600 (Table 1). To determine if Pimecrolimus alone was able to kill Staphylococcus aureus ΔmprF, Pimecrolimus in a concentration of 10 nM is co-incubated with Staphylococcus aureus ΔmprF cultures and incubated at 37° C. (Table 2). Bacterial growth is monitored by OD600 (*: p<0.05; **: p<0.01; Student's t-test).

TLR2 = TLR2 gene expression by qPCR in NHEK; format: cell-based, human; details: for TLR2 mRNA expression (Mean): 10 nM pimecrolimus; for TLR2 mRNA expression (Means of N = 3): Example 6, 10 nM Pimecrolimus, 1 nM 1,25D3; for TLR2 gene expression (Mean): Example 8, 24 hours
Description: (§1) To assess the effect of pimecrolimus on the innate immune response of the epidermis, cultures of normal human keratinocytes (NHEK) are stimulated with a combination of a concentration of 10 nM pimecrolimus and of 1 nM 1.25D3. Gene expression of TLR1, TLR2, TLR4, TLR6 and CD14 are evaluated by qPCR. For CD14 protein expression, a Western Blot is performed and bands are quantified by densitometry using lmagej. Vehicle treated keratinocytes serve as controls. Cathelicidin protein expression is evaluated by immunofluorescence staining.
To assess the effect of pimecrolimus on the innate immune response of the epidermis, cultures of normal human keratinocytes (NHEK) are stimulated with a concentration of 10 nM pimecrolimus,1 nM 1.25 D3, 0.1 μg/ml TLR2/6 ligand Malp-2 or their combination. Expression of cathelicidin, CD14 and TLR2 mRNA normal human keratinocytes is measured and evaluated accordingly to the procedures as detailed in Example 2 above.
To assess the effect of time dependent effects of pimecrolimus on the innate immune response of the epidermis, cultures of normal human keratinocytes (NHEK) are stimulated with 10 nM Pimecrolimus and low dose calciferol (1,25D3) 1 nM for different time points. mRNA expression of cathelicidin, CD14 and TLR2 is analyzed by qPCR.
To assess the effect of calciferol on varying levels of pimecrolimus on the innate immune response of the epidermis, cultures of normal human keratinocytes (NHEK) are stimulated with 0.01 nM, 0.1 nM, 1 nM and 10 nM concentrations of pimecrolimus with or without 1 nM concentrations of calciferol for 24 hours. Expression of cathelicidin mRNA and gene expression of TLR2 is measured and evaluated accordingly to the procedures as detailed in Example 2 above.

TLR6 = TLR6 gene expression by qPCR in NHEK; format: cell-based, human; details: Example 3; 10 nM pimecrolimus, 1 nM 1.25D3
Description: as §1

CC[C@@H]1/C=C(\C)C[C@H](C)C[C@H](OC)[C@H]2O[C@@](O)(C(=O)C(=O)N3CCCC[C@H]3C(=O)O[C@H](/C(C)=C/[C@@H]3CC[C@H](Cl)[C@H](OC)C3)[C@H](C)[C@@H](O)CC1=O)[C@H](C)C[C@@H]2OC [Pimecrolimus, pimecrolimus]
Bacterial growth OD600 (Mean) ([1]; 0 h): 0.3083
Bacterial growth OD600 (Mean) ([1]; 2 h): 0.3387
Bacterial growth OD600 (Mean) ([1]; 4 h): 0.4157
Bacterial growth OD600 (Mean) ([1]; 5 h): 0.4333
Bacterial growth OD600 (Mean) ([1]; 6 h): 0.4227
Bacterial growth OD600 (Mean) ([1]; 8 h): 0.601
Direct antimicrobial effect (in words) ([1]; summary of Table 2): does not have an antimicrobial effect by itself
TLR2 mRNA expression (Mean) (TLR2; Example 3, 1 nM 1.25D3): 1.80
TLR2 mRNA expression (Mean) (TLR2; Example 4, 1 nM 1.25 D3, 0.1 μg/ml Malp-2 or combination): 0.29
TLR2 mRNA expression (Means of N = 3) (TLR2; 0 h): 1.00
TLR2 mRNA expression (Means of N = 3) (TLR2; 8 h): 0.64
TLR2 mRNA expression (Means of N = 3) (TLR2; 24 h): 1.31
TLR2 mRNA expression (Means of N = 3) (TLR2; 48 h): 1.51
TLR2 gene expression (Mean) (TLR2; 0.01 nM PIM with 1 nM 1.25D3): 0.82
TLR2 gene expression (Mean) (TLR2; 0.01 nM PIM, no 1.25D3): 0.73
TLR2 gene expression (Mean) (TLR2; 0.1 nM PIM with 1 nM 1.25D3): 0.57
TLR2 gene expression (Mean) (TLR2; 0.1 nM PIM, no 1.25D3): 0.59
TLR2 gene expression (Mean) (TLR2; 1 nM PIM with 1 nM 1.25D3): 1.07
TLR2 gene expression (Mean) (TLR2; 1 nM PIM, no 1.25D3): 0.98
TLR2 gene expression (Mean) (TLR2; 10 nM PIM with 1 nM 1.25D3): 3.94
TLR2 gene expression (Mean) (TLR2; 10 nM PIM, no 1.25D3): 1.80
TLR2 expression (in words) (TLR2; in the presence of low dose 1,25D3 and Malp-2): increasing
TLR6 mRNA expression (Mean) (TLR6): 4.40
